Consider nine sequences from patent US11795460B2, “Compositions and methods for TTR gene editing and treating ATTR amyloidosis” (Intellia Therapeutics, Inc., priority 2017, dated 2023).

Series [1] deals with TTR. Nature of the series: TTR editing in primary human hepatocytes transfected with Spy Cas9 mRNA and dgRNAs (Table 9). It is filed as cell-based. The following applies: dgRNA co-transfected with Spy Cas9 mRNA (SEQ ID NO:2). In short, it runs like this:
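PHH sequentially lipofected with Spy Cas9 mRNA (100 ng), then crRNA plus tracrRNA (25 nM each) dual-guide lipoplex. Cells harvested 24, 48 or 72 h post-transfection; TTR target amplicons sequenced on Illumina MiSeq, editing given as percent reads with indels or substitutions over total reads.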

For series [2], the system named is TTR. Description: TTR editing in HUH7 cells transfected with Spy Cas9 mRNA and dgRNAs (Table 5). It is filed as cell-based, human. Particulars: HUH7 cells co-transfected with Spy Cas9 mRNA (SEQ ID NO:2) and dgRNAs. Summed up: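 HUH7 cells were transfected sequentially with Spy Cas9 mRNA (100 ng) then crRNA and tracer RNA (25 nM each) by lipofection. Genomic DNA was collected 24, 48 or 72 h later. Target site was PCR-amplified and NGS-sequenced, and percent editing was taken as reads with indels or substitutions over total reads.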

As to “AAUAGGAGUAGGGGCUCAGC (tested as dual guide RNA, chemistry not given here) [CR003384]”, in the series on TTR [1], the “Avg % Deletion” value turned out to be 0.20%, the “Avg % Edit” value is 1.70% and the “Avg % Insert” value was determined as 1.50%. Moreover, in the series on TTR [2], the “Avg % Deletion” value is on record as 16.29%, the “Avg % Edit” value is listed as 17.03% and the “Avg % Insert” value is on record as 0.84%.
Take “ACCUCUGCAUGCUCAUGGAA (tested as dual guide RNA, chemistry not given here) [CR003371]”: in the series on TTR [1], the “Avg % Deletion” value is given as 0.73%, the “Avg % Edit” value is reported as 3.40% and the “Avg % Insert” value was 2.67%. In the series on TTR [2], the “Avg % Deletion” value was 35.65%, the “Avg % Edit” value is 40.47% and the “Avg % Insert” value is on record as 6.07%.
On to “AUGCAGCUCUCCAGACUCAC (tested as dual guide RNA, chemistry not given here) [CR003358]”, for which, in the series with TTR [1], the “Avg % Deletion” value is given as 1.17%, the “Avg % Edit” value is on record as 3.90% and the “Avg % Insert” value was determined as 2.73%. In the series on TTR [2], the “Avg % Deletion” value came to 26.60%, the “Avg % Edit” value was determined as 36.50% and the “Avg % Insert” value was found to be 10.53%.
Consider “CCUCUGCAUGCUCAUGGAAU (tested as dual guide RNA, chemistry not given here) [CR003370]”, for which, in the series with TTR [1], the “Avg % Deletion” value amounted to 0.50%, the “Avg % Edit” value came out at 2.83% and the “Avg % Insert” value was 2.33%. In the series on TTR [2], the “Avg % Deletion” value worked out at 35.55%, the “Avg % Edit” value turned out to be 39.16% and the “Avg % Insert” value is listed as 4.83%.
On to “CUGAGGAGGAAUUUGUAGAA (tested as dual guide RNA, chemistry not given here) [CR003364]”, for which, in the series with TTR [1], the “Avg % Deletion” value was determined as 8.93%, the “Avg % Edit” value is on record as 15.63% and the “Avg % Insert” value was 6.73%. For the same sequence, in the series on TTR [2], the “Avg % Deletion” value was 23.03%, the “Avg % Edit” value is 47.13% and the “Avg % Insert” value was determined as 24.68%.
On to “CUGGUAUUUGUGUCUGAGGC (tested as dual guide RNA, chemistry not given here) [CR003341]”, for which, in the series on TTR [1], the “Avg % Deletion” value turned out to be 9.07%, the “Avg % Edit” value stood at 15.83% and the “Avg % Insert” value is given as 6.80%. In addition, in the series with TTR [2], the “Avg % Deletion” value was 13.20%, the “Avg % Edit” value came out at 20.58% and the “Avg % Insert” value amounted to 7.78%.
Regarding “GCAUGGGCUCACAACUGAGG (tested as dual guide RNA, chemistry not given here) [CR003362]”, in the series on TTR [1], the “Avg % Deletion” value is listed as 0.47%, the “Avg % Edit” value came out at 6.60% and the “Avg % Insert” value is 6.17%. Besides, in the series on TTR [2], the “Avg % Deletion” value amounted to 23.76%, the “Avg % Edit” value amounted to 26.43% and the “Avg % Insert” value came out at 3.43%.
Regarding “GCUGCAUGGGCUCACAACUG (tested as dual guide RNA, chemistry not given here) [CR003361]”, in the series with TTR [1], the “Avg % Deletion” value amounted to 0.87%, the “Avg % Edit” value is 3.53% and the “Avg % Insert” value was 2.73%. Also, in the series with TTR [2], the “Avg % Deletion” value was 22.44%, the “Avg % Edit” value is 28.68% and the “Avg % Insert” value was determined as 6.84%.
Turning to “UACUCACCUCUGCAUGCUCA (tested as dual guide RNA, chemistry not given here) [CR003372]”, in the series with TTR [1], the “Avg % Deletion” value is recorded as 0.63%, the “Avg % Edit” value was found to be 1.77% and the “Avg % Insert” value is reported as 1.13%. Moreover, in the series on TTR [2], the “Avg % Deletion” value is 17.25%, the “Avg % Edit” value was 21.52% and the “Avg % Insert” value worked out at 4.89%.
